Key:
Format in all cases: cell-based
[1] = target: MM.1S, B Lymphoblast (multiple myeloma); test: Viability assay (MTT, Alamar Blue, hexosaminidase), 72 h; settings: MM.1S cells, read-out: EC50
Summary of the method: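 MM.1S cells (RPMI-1640, 10% FBS, 2 mM glutamine, 37 °C) were seeded at 10000 cells/well and dosed after 24 h, starting at 100 μM with 1:1 serial dilutions, in triplicate, for 72 h. Viability was read sequentially by MTT (570 nm), Alamar Blue (535/590) and hexosaminidase (pH 5.0). Values were normalized to control (100%), and EC50 came from a variable-slope sigmoidal fit.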

[2] = target: HL-60, promyeloblast (acute myelocytic leukemia, AML); test: as above; settings: HL-60 cells, read-out: EC50
Summary of the method: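 HL-60 seeded at 10000 cells/well in RPMI-1640/10% FBS, dosed after 24 h from 100 μM top concentration in 1:1 serial dilutions, incubated 72 h at 37° C. Viability read consecutively by MTT, Alamar Blue and hexosaminidase, normalised to untreated cells; EC50 from variable-slope sigmoidal fit, triplicates.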

[3] = target: RAMOS, B lymphocyte (Burkitt's Lymphoma); test: as above; settings: Ramos cells, read-out: EC50
Summary of the method: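 Ramos cells seeded at 10000 cells/well in DMEM + 10% FBS; after 24 h, compounds added as 1:1 serial dilutions from 100 μM and incubated 72 h at 37 °C. Viability read sequentially by MTT (A570), Alamar Blue (535/590) and hexosaminidase activity, normalized to untreated cells; EC50 from variable-slope sigmoidal fit.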

[4] = target: MCF-7, epithelial (breast cancer); test: as above; settings: MCF7 cells, read-out: EC50
Summary of the method: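 Cells seeded at 5000/well, compounds added 24 h later from 100 μM in 1:1 serial dilutions, triplicate, 72 h at 37° C. Viability read consecutively by MTT (A570), Alamar Blue fluorescence and hexosaminidase activity, normalized to untreated control = 100%; EC50 from variable-slope sigmoidal fit.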

[5] = tested on: JB healthy cells (BJ, fibroblast, normal skin); test: as above
Method: BJ, fibroblast (normal skin), ATCC® CRL-2522™
Cell lines A549, MCF-7 and RAMOS were cultured in incubator under CO2 (6%) at 37° C. in DMEM high glucose (Dulbecco's Modified Eagle Solution, Gibco-BRL 31966-21) medium with 10% fetal bovine serum inactivated (FBS) (Gibco-BRL 10106-169). Cell lines HL-60 and MM.1S were cultured in incubator at 37° C. in RPMI-1640 (Sigma R8758) medium with 10% of fetal bovine serum inactivated (FBS) and 2 mM glutamine (Sigma G7513). Cell lines BJ were cultured in incubator under CO2 (6%) at 37° C. in Eagle's Minimum Essential Medium (Sigma, M-2279) with 10% fetal bovine serum inactivated (FBS) (Gibco-BRL 10106-169).
During the amplification step and the assays adherent cells were rinsed with DPBS (Dulbecco's Phosphate Buffered Saline, Sigma D1283) three times and afterward treated for 5 minutes with trypsin ([…]) (Gibco-BRL, 15400054) in solution of DPBS at 37° C., and, once detached, transferred in the culturing medium. […] Cells were counted in a Neubauer chamber after labelling with Tripan-Blue. […]
Cells were incubated during 72 h in incubator under CO2 atmosphere at 37° C. Cell viability was measured by means of MTT (3-(4,5-dimethylthiazol-2-yl)-2.5-diphenyltetrazolium bromide) assay, Alamar Blue® (Biosource DAL1100) and Hexosaminidase activity test, consecutively, following manufacturer instructions. […]

A549 cells = test: Annexin V assay by flow cytometry; settings: A549 cells
Method: Miltenyi Biotec Annexin V-FITC Kit was used. To detect apoptosis in early stage Phosphatidylserine in plasmatic membrane localization was measured, though the calcium dependent reaction with Annexine V. Annexin V molecules were labelled with different fluorophores (FITC) and analyzed by FACS. To detect apoptosis in late stage DNA-intercalating agents, such Propidium iodide (PI) were used.
Cells were seeded at a density range of 150000-30000 cells/well in 12 wells plates, and incubated at 37° C. in the incubator under CO2 atmosphere. After 24 h, […] A549, HL-60 and MM.1S, at IC30 and/or IC80, with compounds IDP-S09 and IL-09, in cell lines HL-60 and MM.1S with compound IDP-S04 and in cell line A549 with compounds IDP-S02 and IDP-S03. Staurosporine and compound 100258-F4 (Sigma) were used as positive control and reference compound, respectively.

## RQRRNXLKRAFAXLRDQ-OH [IDP-S03]
[1]
  EC50: ~14 µM
[2]
  EC50: ~6.6 µM
[3]
  EC50: ~13 µM
[4]
  EC50: 32 ± 5 µM
[5]
  EC50: > 100 µM
A549 cells
  apoptosis induction (Annexin V by FACS), in words: apoptosis induction is detected after 4 h at both IC30 and IC80

— patent publication US11207379B2, “Peptides with anti-cancer activity” (IDP DISCOVERY PHARMA, S.L., priority 2016, dated 2021)
